The values that follow come from patent US8829167B2, “Foliamangiferosides, preparation method and use thereof” (Tianjin University of Traditional Chinese Medicine, priority 2009, dated 2014).

For this test, the target named is T1, α-glucosidase derived from rat intestines (Rattus norvegicus, UniProt P23739).
T1 construct: The brush border membrane is scraped; from tissue; host or cells: Wistar male rat jejunum, brush border membrane (crude preparation)
The test is described as follows: α-glucosidase inhibiting activity (sucrose hydrolysis by rat intestinal brush border crude enzyme, glucose assay kit). The format is biochemical. The settings on record: for inhibition of the conversion of sucrose into glucose under the catalysis of α-glucosidase in intestines (in words): in vitro; for Inhibition ratio: sucrose substrate, 37° C., 30 min. The procedure: The research process of α-glucosidase inhibiting activity: A Wistar male rat (body weight: about 200 g) is sacrificed by decapitation. The jejunum is taken out. The brush border membrane is scraped and then mixed into 0.1 M maleic acid buffer solution (pH 6.0). The mixture is used as α-glucosidase crude enzyme. 50 uL of sample solution dissolved in 2.5% DMSO is added into 100 uL of […] sucrosebase solution, into which 50 uL of the α-glucosidase solution derived from rat intestines is added. The mixture is reacted for 30 minutes at 37° C. before adding 800 uL of water and placing into boiling water bath for 2 minutes to be inactivated. The amount of the glucose produced is assayed with glucose assay kits.
Preparation of Sample Solution Group
0.1 M of maleic acid aqueous solution is mixed with 0.1 M of sodium maleate aqueous solution. The mixture is adjusted to pH 6.0 and is used as 0.1 M of maleic acid buffer solution. A sample is dissolved into DMSO solution and diluted 10 times with 0.1 M of maleic acid buffer solution. A sample solution is obtained and ready to use.
Sample group: The group in which a sample is added according to the experimental procedure described above (the samples are foliamangiferoside A (obtained in example 1) and foliamangiferoside B (obtained in example 2)); Control group: The group in which 2.5% DMSO solution is added according to the experimental procedure described above; Blank group: The type and amount of the agents are the same with those in sample group except that 800 uL of water is added immediately after 50 uL of the α-glucosidase solution derived from rat intestines is added, then the mixture is placed into a boiling water bath for 2 minutes to conduct inactivation. Furthermore, the similar experiments are conducted with ethanolic extracts of mango leaves (the product obtained in step 1 of example 1).
The following equation is used to calculate the inhibition ratio (%): inhibition ratio (%)=(A−B)/(A−C)*100
wherein, A is the absorbance of control group, B is the absorbance of sample group and C is the absorbance of blank group.

T1 sequence (P23739 whole entry): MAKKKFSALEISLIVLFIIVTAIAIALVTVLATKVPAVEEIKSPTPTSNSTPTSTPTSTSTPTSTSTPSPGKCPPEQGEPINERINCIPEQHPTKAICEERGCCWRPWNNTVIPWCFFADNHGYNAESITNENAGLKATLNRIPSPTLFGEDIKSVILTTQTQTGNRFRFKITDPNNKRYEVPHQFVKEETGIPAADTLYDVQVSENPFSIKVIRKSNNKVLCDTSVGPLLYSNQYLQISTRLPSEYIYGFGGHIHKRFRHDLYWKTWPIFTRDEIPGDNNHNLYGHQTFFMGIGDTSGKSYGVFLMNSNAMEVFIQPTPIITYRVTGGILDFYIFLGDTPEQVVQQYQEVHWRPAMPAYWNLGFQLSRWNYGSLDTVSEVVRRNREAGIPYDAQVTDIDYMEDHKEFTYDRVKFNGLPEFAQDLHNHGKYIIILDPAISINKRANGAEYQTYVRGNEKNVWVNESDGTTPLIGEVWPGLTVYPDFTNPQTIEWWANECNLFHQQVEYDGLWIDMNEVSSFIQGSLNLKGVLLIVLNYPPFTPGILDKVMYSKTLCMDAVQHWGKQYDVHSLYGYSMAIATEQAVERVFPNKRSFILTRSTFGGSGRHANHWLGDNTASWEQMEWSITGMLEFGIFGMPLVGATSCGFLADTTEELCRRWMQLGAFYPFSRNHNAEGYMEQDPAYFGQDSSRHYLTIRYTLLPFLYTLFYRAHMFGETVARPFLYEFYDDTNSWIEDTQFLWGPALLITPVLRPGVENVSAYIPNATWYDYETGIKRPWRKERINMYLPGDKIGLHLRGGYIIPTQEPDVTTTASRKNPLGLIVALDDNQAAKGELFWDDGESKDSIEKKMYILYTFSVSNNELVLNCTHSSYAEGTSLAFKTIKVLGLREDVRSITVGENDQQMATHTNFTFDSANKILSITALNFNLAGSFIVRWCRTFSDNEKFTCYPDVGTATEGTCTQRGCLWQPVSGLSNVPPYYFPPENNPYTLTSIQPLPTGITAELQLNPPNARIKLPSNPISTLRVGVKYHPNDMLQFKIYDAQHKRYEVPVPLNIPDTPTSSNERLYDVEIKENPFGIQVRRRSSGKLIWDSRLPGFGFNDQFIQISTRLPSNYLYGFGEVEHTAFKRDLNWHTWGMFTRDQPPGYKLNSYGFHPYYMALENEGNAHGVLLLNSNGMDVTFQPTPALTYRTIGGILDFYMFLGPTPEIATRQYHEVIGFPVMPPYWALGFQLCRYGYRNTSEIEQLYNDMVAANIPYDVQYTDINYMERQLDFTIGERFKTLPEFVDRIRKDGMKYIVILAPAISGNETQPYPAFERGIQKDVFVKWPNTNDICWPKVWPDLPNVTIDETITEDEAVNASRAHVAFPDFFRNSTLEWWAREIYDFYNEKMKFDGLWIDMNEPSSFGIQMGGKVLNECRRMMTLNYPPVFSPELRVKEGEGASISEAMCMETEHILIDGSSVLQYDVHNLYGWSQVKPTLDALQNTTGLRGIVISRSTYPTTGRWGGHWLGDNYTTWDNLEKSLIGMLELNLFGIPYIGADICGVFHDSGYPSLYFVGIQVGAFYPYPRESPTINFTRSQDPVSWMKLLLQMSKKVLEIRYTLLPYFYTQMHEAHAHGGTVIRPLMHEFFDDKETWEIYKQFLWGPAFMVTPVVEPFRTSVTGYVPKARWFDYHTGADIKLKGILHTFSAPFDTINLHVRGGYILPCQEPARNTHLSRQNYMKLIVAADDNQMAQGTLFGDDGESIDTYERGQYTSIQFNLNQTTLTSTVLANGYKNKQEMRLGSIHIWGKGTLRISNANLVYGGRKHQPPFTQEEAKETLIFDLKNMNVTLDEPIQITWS

Take `COc1cc(O)c(C(=O)c2ccc(O)cc2)c(O)c1[C@@H]1O[C@H](CO)[C@@H](O)[C@H](O)[C@H]1O` [Foliamangiferoside A, foliamangiferoside A]: the “inhibition of the conversion of sucrose into glucose under the catalysis of α-glucosidase in intestines (in words)” value is on record as “can effectively inhibit”. Further, under “sample 50 uM”, the “Sample group Conc. of glucose hydrolyzed” value turned out to be 5.23 mg/dL and the Inhibition ratio stood at 15.8%. Also, for the setting “sample 100 uM”, the “Sample group Conc. of glucose hydrolyzed” value is 4.64 mg/dL and the Inhibition ratio is 20.2%. In addition, under “sample 200 uM”, the “Sample group Conc. of glucose hydrolyzed” value was determined as 4.12 mg/dL and the Inhibition ratio is on record as 26.2%. In addition, for the setting “sample 400 uM”, the “Sample group Conc. of glucose hydrolyzed” value stood at 3.09 mg/dL and the Inhibition ratio came to 58.2%. The Inhibition ratio (sample 400 uM, listed as foliamangiferoside A) was 58.2%.
Consider `COc1cc(C(=O)c2c(O)cc(OC)c([C@@H]3OC(CO)[C@@H](O)C(O)C3O)c2O)ccc1O` (some centres unmarked) [Foliamangiferoside B, foliamangiferoside B], for which the “inhibition of the conversion of sucrose into glucose under the catalysis of α-glucosidase in intestines (in words)” value was “can effectively inhibit”. Besides, under “sample 50 uM”, the “Sample group Conc. of glucose hydrolyzed” value stood at 5.23 mg/dL and the Inhibition ratio is 19.6%. Under “sample 100 uM”, the “Sample group Conc. of glucose hydrolyzed” value turned out to be 4.64 mg/dL and the Inhibition ratio turned out to be 23.9%. Under “sample 200 uM”, the “Sample group Conc. of glucose hydrolyzed” value worked out at 4.12 mg/dL and the Inhibition ratio was determined as 29.6%. For the setting “sample 400 uM”, the “Sample group Conc. of glucose hydrolyzed” value worked out at 3.71 mg/dL and the Inhibition ratio was determined as 45.6%. For the same compound, under “sample 400 uM, listed as foliamangiferoside B”, the Inhibition ratio is 45.6%.
